This test concerns Heliothis virescens. Briefly: Artificial diet feeding bioassay, mortality and growth inhibition in first-instar larvae. The test is classed as in vivo, Heliothis virescens (tobacco budworm). Conditions: for EC50 (concentration causing 50% growth inhibition): Table 1, first-instar Heliothis virescens larvae, parentheses = 95% confidence limits; for EC50 (concentration causing 50% growth inhibition) / EC50: artificial diet; for LC50: Heliothis virescens, po; for insecticidal activity (in words): Heliothis virescens feeding; for EC50: Table 5, larval growth reduced to 50% of control, first instar Heliothis virescens, 95% confidence limits. An excerpt:
The results of the growth inhibitory and lethal activities of azadirachtin and these 8 derivatives when fed in an artificial diet to Heliothis virescens larvae are shown in Table 1. Similar to the results of Morgan, E. D., in "Natural pesticides from the Neem tree (Azadirachta indica A. Juss), Schmutterer, H., et al., Eds., Proc. First International Neem Conference (Rottach-Egern, 1980), German Agency for Technical Corporation,Eschborn, Germany, 1982, pps. 43-52 (hereinafter "Morgan"), neither deacetylation nor hydrogenation of the carbon-carbon double bond of the dihydrofuran ring moiety of azadirachtin had any significant effect on activity of the compound against H. virescens.
Mortality and growth inhibition in first-instar Heliothis
virescens larvae fed azadirachtin and eight derivatives in an
artificial diet (I. Kubo and J. A. Klocke, In: Plant Resistance to
Insects (P. A. Helin, Ed.), ACS Symposium Series 208, American Chemical
Society, Washington, D.C. (1983), pp. 329-346.).^a
^b LC50 values are the concentrations (ppm) causing 50%
^c EC50 values are the concentrations (ppm) causing 50% growth
^d Numbers in parentheses are the 95% confidence limits determined
using the methods of Litchfield and Wilcoxon, J. Pharmacol. Exp. Ther.
An artificial diet feeding bioassay with neonate larvae of tobacco budworm (Heliothis virescens) and fall armyworm (Spodoptera frugiperda) was used as previously described (Kubo and Klocke, 1983) to detect insecticidal activities in the plant extracts to monitor fractionation, and to determine the potency of the isolated constituents and derivatives. Potency was determined either as the effective concentration (EC50) of added material that is necessary to reduce larval growth to 50% of the control values or as the lethal concentration (LC50) of added material that is necessary to kill 50% of the treated larvae. EC50 and LC50 values were determined from log probit paper and analyzed statistically by the method of Litchfield and Wilcoxon, supra.

Setting [1] is: read-out: LC50 (concentration causing 50% mortality).

Structures are written as SMILES. Converted amounts (≈) assume the structure as drawn. Like-named read-outs stand apart in the source and are kept apart here.

For the molecule `COC(=O)C1(O)OCC23C(O)CC(OC(C)=O)C4(C(=O)OC)COC(C42)C(O)C(C)(C24OC2(C)C2CC4OC4OCCC42O)C13` (centres unmarked) [1-detigloyl-22,23-dihydroazadirachtin], the “EC50 (concentration causing 50% growth inhibition)” value is listed as 0.59 (0.30-1.14) ppm.

With `COC(=O)C1(O)OCC23C(OC(=O)C(C)(O)C(C)O)CC(OC(C)=O)C4(C(=O)OC)COC(C42)C(O)C(C)(C24OC2(C)C2CC4OC4OCCC42O)C13` (centres unmarked) [2',3'-dihydroxy-2',3',22,23-tetrahydroazadirachtin], the “EC50 (concentration causing 50% growth inhibition)” value is 3.80 (1.95-7.41) ppm.

Consider `C/C=C(\C)C(=O)OC1CC(OC(C)=O)C2(C(=O)OC)COC3C2C12COC(OC(=O)OC)(C(=O)OC)C2C(C)(C12OC1(C)C1CC2OC2OCCC21OC(=O)OC)C3O` (centres unmarked) [11,20-O, O-dicarbomethoxy-22,23-dihydroazadirachtin], for which the “EC50 (concentration causing 50% growth inhibition)” value is reported as 29.0 (20.3-41.5) ppm. Besides, the LC50 under setting [1] was determined as 90 µg/mL (≈ 107 µM).

In the case of `C/C=C(\C)C(=O)OC1CC(OC(C)=O)C2(C(=O)OC)COC3C2C12COC(OC(C)=O)(C(=O)OC)C2C(C)(C12OC1(C)C1CC2OC2OC=CC21O)C3O` (centres unmarked) [11-O-acetylazadirachtin], the “EC50 (concentration causing 50% growth inhibition)” value was 0.18 (0.08-0.40) ppm. The LC50 under setting [1] worked out at 0.95 µg/mL (≈ 1.25 µM).

In the case of `C/C=C(\C)C(=O)OC1CC(OC(C)=O)C2(C(=O)OC)COC3C2C12COC(OC)(C(=O)OC)C2C(C)(C12OC1(C)C1CC2OC2OC=CC21O)C3O` (centres unmarked) [11-O-methylazadirachtin], the “EC50 (concentration causing 50% growth inhibition)” value was 5.00 (1.54-16.25) ppm. Besides, the LC50 under setting [1] was 25 µg/mL (≈ 34 µM).

Take `CC(=O)C1C2(CO)C(OC(=O)/C=C/c3ccccc3)CC(O)C3(C)COC(C32)C(O)C1(C)C12OC1(C)C1CC2OC2OC=CC21O` (centres unmarked) [Compound 10, 1-cinnamoylmelianolone]: the “insecticidal activity (in words)” value is listed as “approximately half that of azadirachtin”, the LC50 was determined as 1.5 µg/mL (≈ 2.35 µM) and the EC50 was found to be 0.12 ppm.

Consider `CC(=O)OC1CC(OC(=O)/C=C/c2ccccc2)C2(CO)C3C(OCC13C)C(O)C(C)(C13OC1(C)C1CC3OC3OC=CC31O)C2C(C)=O` (centres unmarked) [Compound 12, 1-cinnamoyl-3-0-acetylmelianolone], for which the “insecticidal activity (in words)” value is on record as “approximately half that of azadirachtin”, the LC50 is 1.5 µg/mL (≈ 2.2 µM) and the EC50 was determined as 0.15 ppm.

In the case of `CC(=O)OCC12C(OC(=O)/C=C/c3ccccc3)CC(OC(C)=O)C3(C)COC(C31)C(O)C(C)(C13OC1(C)C1CC3OC3OC=CC31O)C2C(C)=O` (centres unmarked) [Compound 13, 1-cinnamoyl-3,19-0,0-diacetylmelianolone], the “insecticidal activity (in words)” value was “approximately half that of azadirachtin”, the LC50 stood at 1.5 µg/mL (≈ 2.08 µM) and the EC50 was determined as 0.12 ppm.

For `CC(=O)C1C2(CO)C(O)CC(O)C3(C)COC(C32)C(O)C1(C)C12OC1(C)C1CC2OC2OC=CC21O` (centres unmarked) [Compound 14, decinnamoylmelianolone], the “insecticidal activity (in words)” value is on record as “did not show good activity”, the LC50 worked out at 10 µg/mL (≈ 19.7 µM) and the EC50 stood at 3.20 ppm.

Values taken from patent US5047242A, “Azadirachtin derivative insecticides” (Native Plant Institute ("NPI"), priority 1987, dated 1991).
